Experimental data taken from ChEMBL document CHEMBL1150494, “Inhibitory effect on HT-1080 tumor cell invasion in vitro using 9-(2-hydroxyethyl)adenine 2-phosphates” (1997).

Key:
[1] = biological target: Matrix metalloproteinase-9 (Homo sapiens) (UniProt P14780); test: Inhibition of collagen IV degradation by matrix metalloprotease-9 at 10 uM
HT-1080 [2] = test: In vitro inhibitory activity against HT1080 tumor cell invasion using Matrigel (MG) at a concentration of 100 uM; format: functional, Homo sapiens
HT-1080 [3] = test: In vitro inhibitory activity against HT1080 tumor cell invasion using Matrigel (MG) at a concentration of 10 uM; format: functional, Homo sapiens
[4] = biological target: Matrix metalloproteinase-9 (Homo sapiens) (UniProt P14780); test: Inhibition of collagen IV degradation by matrix metalloprotease-9 at 100 uM

Sequence of Matrix metalloproteinase-9 (Homo sapiens) (P14780 whole entry): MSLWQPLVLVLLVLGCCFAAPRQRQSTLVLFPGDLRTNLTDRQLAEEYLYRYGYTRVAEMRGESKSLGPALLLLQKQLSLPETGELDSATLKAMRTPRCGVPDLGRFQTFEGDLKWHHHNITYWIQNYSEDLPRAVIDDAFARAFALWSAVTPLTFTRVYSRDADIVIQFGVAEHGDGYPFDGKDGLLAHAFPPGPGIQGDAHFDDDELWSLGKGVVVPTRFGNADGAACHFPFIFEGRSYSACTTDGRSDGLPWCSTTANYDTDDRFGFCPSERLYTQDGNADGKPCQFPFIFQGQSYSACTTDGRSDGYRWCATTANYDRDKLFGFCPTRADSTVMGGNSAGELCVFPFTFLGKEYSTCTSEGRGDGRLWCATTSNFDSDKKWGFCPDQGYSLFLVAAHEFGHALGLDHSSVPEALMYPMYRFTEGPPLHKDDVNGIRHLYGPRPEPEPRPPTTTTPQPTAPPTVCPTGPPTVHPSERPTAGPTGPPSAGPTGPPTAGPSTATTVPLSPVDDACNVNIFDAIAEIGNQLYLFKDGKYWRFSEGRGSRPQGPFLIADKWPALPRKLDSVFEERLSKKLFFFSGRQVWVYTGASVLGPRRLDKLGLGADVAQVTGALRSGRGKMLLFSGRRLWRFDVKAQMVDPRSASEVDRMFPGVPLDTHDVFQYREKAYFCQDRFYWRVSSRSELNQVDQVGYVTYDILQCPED

Row | Structure (SMILES) | Inhibition ratio [1] [%] | Inhibition ratio (HT-1080 [2]) [%] | Inhibition ratio (HT-1080 [3]) [%] | Inhibition ratio [4] [%]
1 | Nc1ncnc2c1ncn2CCO | 2 | ~50 | ~2 | 18
2 | Nc1ncnc2c1ncn2CCOP(=O)(O)O | 32 | 53 | 46 | 57
3 | CNc1ncnc2c1ncn2CCOP(=O)(O)O | 46 | ~54 | ~46 | 55
4 | Nc1ncnc2c1nc(Br)n2CCOP(=O)(O)O | 23 | ~41 | ~23 | 41
5 | O=P(O)(O)OCCn1cnc2c(Cl)ncnc21 | – | ~12 | – | 12
6 | Nc1ncnc2c1ncn2CCOP(=O)(O)OP(=O)(O)OP(=O)(O)O | 53 | ~36 | ~35 | 69
